{
  "source": "PubChem BioAssay (NCI)",
  "assay_in_all_cases": "growth of human tumour cells (NCI), 48 h",
  "key": {"[1]": {"test_system": "NCI-H226 lung"}, "[2]": {"test_system": "NCI-H23 lung"}, "[3]": {"test_system": "NCI-H460 lung"}, "[4]": {"test_system": "NCI-H522 lung"}, "[5]": {"test_system": "NCI/ADR-RES ovarian"}, "[6]": {"test_system": "OVCAR-3 ovarian"}, "[7]": {"test_system": "OVCAR-4 ovarian"}, "[8]": {"test_system": "OVCAR-5 ovarian"}, "[9]": {"test_system": "OVCAR-8 ovarian"}, "[10]": {"test_system": "PC-3 prostate"}, "[11]": {"test_system": "RPMI-8226 leukemia"}, "[12]": {"test_system": "RXF 393 renal"}, "[13]": {"test_system": "SF-268 CNS"}, "[14]": {"test_system": "SF-295 CNS"}, "[15]": {"test_system": "SF-539 CNS"}, "[16]": {"test_system": "SK-MEL-2 melanoma"}, "[17]": {"test_system": "SK-MEL-28 melanoma"}, "[18]": {"test_system": "SK-MEL-5 melanoma"}, "[19]": {"test_system": "SK-OV-3 ovarian"}, "[20]": {"test_system": "SN12C renal"}, "[21]": {"test_system": "SNB-19 CNS"}, "[22]": {"test_system": "SNB-75 CNS"}, "[23]": {"test_system": "SR leukemia"}, "[24]": {"test_system": "SW-620 colon"}, "[25]": {"test_system": "T-47D breast"}, "[26]": {"test_system": "TK-10 renal"}, "[27]": {"test_system": "U251 CNS"}, "[28]": {"test_system": "UACC-257 melanoma"}, "[29]": {"test_system": "UACC-62 melanoma"}, "[30]": {"test_system": "UO-31 renal"}},
  "note": "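Exposure lasted 48 hours, with cells grown in 96-well plates and compounds tested at five concentrations. GI50: concentration for 50% inhibition of growth. TGI: concentration producing complete growth inhibition.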",
  "data": [
    {"compound": "CCN1C(=O)N(CC)C2C1NN=c1s/c(=C\\c3ccccc3)c(=O)n12", "note": "(configuration not stated)", "values": [
      {"measurement": "GI50", "setting": "[1]", "result": 27600, "unit": "nM"},
      {"measurement": "TGI", "setting": "[1]", "result": "> 100000", "unit": "nM"},
      {"measurement": "GI50", "setting": "[2]", "result": 544, "unit": "nM"},
      {"measurement": "TGI", "setting": "[2]", "result": "> 100000", "unit": "nM"},
      {"measurement": "GI50", "setting": "[3]", "result": 210, "unit": "nM"},
      {"measurement": "TGI", "setting": "[3]", "result": "> 100000", "unit": "nM"},
      {"measurement": "GI50", "setting": "[4]", "result": 110, "unit": "nM"},
      {"measurement": "GI50", "setting": "[5]", "result": 79.9, "unit": "nM"},
      {"measurement": "TGI", "setting": "[5]", "result": "> 100000", "unit": "nM"},
      {"measurement": "GI50", "setting": "[6]", "result": 56.1, "unit": "nM"},
      {"measurement": "TGI", "setting": "[6]", "result": 354, "unit": "nM"},
      {"measurement": "GI50", "setting": "[7]", "result": 869, "unit": "nM"},
      {"measurement": "TGI", "setting": "[7]", "result": "> 100000", "unit": "nM"},
      {"measurement": "GI50", "setting": "[8]", "result": 498, "unit": "nM"},
      {"measurement": "TGI", "setting": "[8]", "result": "> 100000", "unit": "nM"},
      {"measurement": "GI50", "setting": "[9]", "result": 426, "unit": "nM"},
      {"measurement": "TGI", "setting": "[9]", "result": "> 100000", "unit": "nM"},
      {"measurement": "GI50", "setting": "[10]", "result": 157, "unit": "nM"},
      {"measurement": "TGI", "setting": "[10]", "result": "> 100000", "unit": "nM"},
      {"measurement": "GI50", "setting": "[11]", "result": 389, "unit": "nM"},
      {"measurement": "TGI", "setting": "[11]", "result": "> 72400", "unit": "nM"},
      {"measurement": "GI50", "setting": "[12]", "result": 74.8, "unit": "nM"},
      {"measurement": "TGI", "setting": "[12]", "result": "> 100000", "unit": "nM"},
      {"measurement": "GI50", "setting": "[13]", "result": 771, "unit": "nM"},
      {"measurement": "TGI", "setting": "[13]", "result": "> 100000", "unit": "nM"},
      {"measurement": "GI50", "setting": "[14]", "result": 66.3, "unit": "nM"},
      {"measurement": "TGI", "setting": "[14]", "result": "> 100000", "unit": "nM"},
      {"measurement": "GI50", "setting": "[15]", "result": 106, "unit": "nM"},
      {"measurement": "TGI", "setting": "[15]", "result": 554, "unit": "nM"},
      {"measurement": "TGI", "setting": "[16]", "result": "> 100000", "unit": "nM"},
      {"measurement": "GI50", "setting": "[17]", "result": "> 49100", "unit": "nM"},
      {"measurement": "TGI", "setting": "[17]", "result": "> 100000", "unit": "nM"},
      {"measurement": "GI50", "setting": "[18]", "result": 147, "unit": "nM"},
      {"measurement": "TGI", "setting": "[18]", "result": 6110, "unit": "nM"},
      {"measurement": "GI50", "setting": "[19]", "result": 311, "unit": "nM"},
      {"measurement": "TGI", "setting": "[19]", "result": "> 100000", "unit": "nM"},
      {"measurement": "GI50", "setting": "[20]", "result": 511, "unit": "nM"},
      {"measurement": "TGI", "setting": "[20]", "result": "> 100000", "unit": "nM"},
      {"measurement": "GI50", "setting": "[21]", "result": 537, "unit": "nM"},
      {"measurement": "TGI", "setting": "[21]", "result": "> 100000", "unit": "nM"},
      {"measurement": "GI50", "setting": "[22]", "result": 48.7, "unit": "nM"},
      {"measurement": "GI50", "setting": "[23]", "result": 53.1, "unit": "nM"},
      {"measurement": "TGI", "setting": "[23]", "result": "> 49200", "unit": "nM"},
      {"measurement": "GI50", "setting": "[24]", "result": 80.8, "unit": "nM"},
      {"measurement": "TGI", "setting": "[24]", "result": "> 100000", "unit": "nM"},
      {"measurement": "GI50", "setting": "[25]", "result": 519, "unit": "nM"},
      {"measurement": "TGI", "setting": "[25]", "result": "> 100000", "unit": "nM"},
      {"measurement": "GI50", "setting": "[26]", "result": 32800, "unit": "nM"},
      {"measurement": "TGI", "setting": "[26]", "result": "> 100000", "unit": "nM"},
      {"measurement": "GI50", "setting": "[27]", "result": 316, "unit": "nM"},
      {"measurement": "TGI", "setting": "[27]", "result": "> 100000", "unit": "nM"},
      {"measurement": "GI50", "setting": "[28]", "result": "> 72700", "unit": "nM"},
      {"measurement": "TGI", "setting": "[28]", "result": "> 100000", "unit": "nM"},
      {"measurement": "GI50", "setting": "[29]", "result": 59.6, "unit": "nM"},
      {"measurement": "TGI", "setting": "[29]", "result": "> 100000", "unit": "nM"},
      {"measurement": "GI50", "setting": "[30]", "result": 490, "unit": "nM"},
      {"measurement": "TGI", "setting": "[30]", "result": "> 100000", "unit": "nM"}
    ]}
  ]
}
